Experimental data taken from US9399649B2, “Compounds for treating spinal muscular atrophy” (PTC Therapeutics Inc., priority 2012, dated 2016).

Key:
[1] = test system: Smn protein; test: Smn protein assay in cultured cells (SMN HTRF); type: cell-based, human; conditions: SMA patient fibroblast cells (GM03813), 48 hours; for EC1.5x for Smn protein expression: 7-point concentration curve, concentration producing 1.5 times Smn protein vs DMSO vehicle; for maximum fold (Fold) increase of Smn protein: 7-point concentration data, relative to vehicle control
Method in brief: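 Smn protein measured by HTRF (anti-SMN d2/kryptate) in lysates of SMA patient fibroblasts after 48 h compound treatment, 7-point 3.16-fold dilutions, triplicates. The 665/620 nm ratio is blank-corrected to ΔF, then divided by the vehicle ΔF to give fold increase.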

[2] = test system: full length SMN2 minigene mRNA containing SMN2 exon 7; test: SMN2 minigene mRNA splicing RT-qPCR assay in cultured cells; type: cell-based, human; conditions: Homo sapiens, HEK293-H; HEK293H cells stably transfected with SMN2-A minigene, 24 hours, 7-point concentration curve; concentration giving 1.5-fold full length SMN2 mRNA vs vehicle; read-out: EC1.5x for production of full length SMN2 mRNA
Method in brief: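 Read-out is minigene FL mRNA (exon 7 included) relative to vehicle, from efficiency-corrected ΔΔCt with GAPDH normalisation. Primers and probe span exon 7, exon 8 and luciferase, so endogenous SMN is not detected. Stable SMN2-A minigene HEK293H cells, 24 h compound exposure at 37 °C, 7-point curve in duplicate.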

Row | SMILES | melting point | EC1.5x for Smn protein expression [1] | maximum fold (Fold) increase of Smn protein [1] | EC (1.5-fold) [2] [µM]
1 | Cc1cn2cc(-c3cc4ccc(N5CCNCC5)cc4c(=O)o3)nc2cn1 [Cpd 56, 3-(6-methylimidazo[1,2-a]pyrazin-2-yl)-7-(piperazin-1-yl)-1H-isochromen-1-one] | 225 to 227 °C | **** (an EC1.5×≦0.3 nM is indicated by four stars (****)) | ***** (a fold increase >1.65 is indicated by five stars (*****)) | ≤ 0.1
2 | Cc1cn2cc(-c3cc4ccc(N5CCN[C@@H](C)C5)cc4c(=O)o3)nc2cn1 [Cpd 57, 3-(6-methylimidazo[1,2-a]pyrazin-2-yl)-7-[(3S)-3-methylpiperazin-1-yl]-1H-isochromen-1-one] | 242 to 244 °C | **** (an EC1.5×≦0.3 nM is indicated by four stars (****)) | ***** (a fold increase >1.65 is indicated by five stars (*****)) | ≤ 0.1
3 | Cc1cn2cc(-c3cc4ccc(N5C[C@@H](C)N[C@@H](C)C5)cc4c(=O)o3)nc2cn1 [Cpd 58, 7-[(3R,5S)-3,5-dimethylpiperazin-1-yl]-3-(6-methylimidazo[1,2-a]pyrazin-2-yl)-1H-isochromen-1-one] | 279 to 281 °C | **** (an EC1.5×≦0.3 nM is indicated by four stars (****)) | ***** (a fold increase >1.65 is indicated by five stars (*****)) | ≤ 0.1
4 | O=c1oc(-c2cn3cccc(Cl)c3n2)cc2ccc(N3CCNCC3)cc12 [Cpd 59, 3-(8-chloroimidazo[1,2-a]pyridin-2-yl)-7-(piperazin-1-yl)-1H-isochromen-1-one] | 343 to 345 °C | – | ** (a fold increase between >1.2 and ≦1.35 is indicated by two stars (**)) | 1 to 3
5 | C[C@H]1CN(c2ccc3cc(-c4cn5cccc(Cl)c5n4)oc(=O)c3c2)CCN1 [Cpd 60, 3-(8-chloroimidazo[1,2-a]pyridin-2-yl)-7-[(3S)-3-methylpiperazin-1-yl]-1H-isochromen-1-one] | 314 to 316 °C | – | *** (a fold increase between >1.35 and ≦1.5 is indicated by three stars (***)) | 0.3 to 1
6 | CN1CCN(c2ccc3cc(-c4cn5cccc(Cl)c5n4)oc(=O)c3c2)CC1 [Cpd 61, 3-(8-chloroimidazo[1,2-a]pyridin-2-yl)-7-(4-methylpiperazin-1-yl)-1H-isochromen-1-one] | 240 °C (dec.) | – | * (A maximum fold increase of ≦1.2 is indicated by one star (*)) | 1 to 3
7 | Cc1cn2cc(-c3cc4ccc(N5CCN[C@@H](C)C5)cc4c(=O)o3)nc2c(C)n1 [Cpd 63, 3-(6,8-dimethylimidazo[1,2-a]pyrazin-2-yl)-7-[(3S)-3-methylpiperazin-1-yl]-1H-isochromen-1-one] | 325 to 327 °C | **** (an EC1.5×≦0.3 nM is indicated by four stars (****)) | ***** (a fold increase >1.65 is indicated by five stars (*****)) | ≤ 0.1
8 | Cc1cn2cc(-c3cc4ccc(N5C[C@@H](C)N[C@@H](C)C5)cc4c(=O)o3)nc2c(C)n1 [Cpd 64, 3-(6,8-dimethylimidazo[1,2-a]pyrazin-2-yl)-7-[(3R,5S)-3,5-dimethylpiperazin-1-yl]-1H-isochromen-1-one] | 244 to 246 °C | **** (an EC1.5×≦0.3 nM is indicated by four stars (****)) | ***** (a fold increase >1.65 is indicated by five stars (*****)) | ≤ 0.1
9 | Cc1cn2cc(-c3cc4ccc(N5CCN(C)[C@@H](C)C5)cc4c(=O)o3)nc2c(C)n1 [Cpd 66, 3-(6,8-dimethylimidazo[1,2-a]pyrazin-2-yl)-7-[(3S)-3,4-dimethylpiperazin-1-yl]-1H-isochromen-1-one] | 255 to 256 °C | **** (an EC1.5×≦0.3 nM is indicated by four stars (****)) | ***** (a fold increase >1.65 is indicated by five stars (*****)) | ≤ 0.1
10 | COc1ccc(-c2cc3ccc(N4CCN(C)[C@@H](C)C4)cc3c(=O)o2)cc1OC [Cpd 67, 3-(3,4-dimethoxyphenyl)-7-[(3S)-3,4-dimethylpiperazin-1-yl]-1H-isochromen-1-one] | 138 to 140 °C | ** (an EC1.5× between >1 μM, and ≦3 nM is indicated by two stars (**)) | *** (a fold increase between >1.35 and ≦1.5 is indicated by three stars (***)) | 0.3 to 1
11 | Cc1cn2cc(-c3cc4ccc(N5CCN6CCC[C@@H]6C5)cc4c(=O)o3)nc2cn1 [Cpd 68, 7-[(8aR)-hexahydropyrrolo[1,2-a]pyrazin-2(1H)-yl]-3-(6-methylimidazo[1,2-a]pyrazin-2-yl)-1H-isochromen-1-one] | 255 to 257 °C | * (An EC1.5× for Smn protein expression between >3 μM and <10 μM is indicated by one star (*)) | **** (a fold increase between >1.5 and ≦1.65 is indicated by four stars (****)) | ≤ 0.1

The next lines start with results.

Row | melting point | SMILES | EC1.5x for Smn protein expression [1] | maximum fold (Fold) increase of Smn protein [1] | EC (1.5-fold) [2] [µM]
12 | 331 to 333 °C | Cc1cn2cc(-c3cc4ccc(N5CCN[C@H](C)C5)cc4c(=O)o3)nc2c(C)n1 [Cpd 71, 3-(6,8-dimethylimidazo[1,2-a]pyrazin-2-yl)-7-[(3R)-3-methylpiperazin-1-yl]-1H-isochromen-1-one] | **** (an EC1.5×≦0.3 nM is indicated by four stars (****)) | ***** (a fold increase >1.65 is indicated by five stars (*****)) | ≤ 0.1
13 | 252 to 254 °C | Cc1cn2cc(-c3cc4ccc(N5CCN(C)[C@H](C)C5)cc4c(=O)o3)nc2c(C)n1 [Cpd 72, 3-(6,8-dimethylimidazo[1,2-a]pyrazin-2-yl)-7-[(3R)-3,4-dimethylpiperazin-1-yl]-1H-isochromen-1-one] | *** (an EC1.5× between >0.3 nM and ≦1 nM is indicated by three stars (***)) | ***** (a fold increase >1.65 is indicated by five stars (*****)) | ≤ 0.1
14 | 238 to 240 °C | CCN1CCN(c2ccc3cc(-c4cn5cc(C)nc(C)c5n4)oc(=O)c3c2)CC1 [Cpd 73, 3-(6,8-dimethylimidazo[1,2-a]pyrazin-2-yl)-7-(4-ethylpiperazin-1-yl)-1H-isochromen-1-one] | **** (an EC1.5×≦0.3 nM is indicated by four stars (****)) | ***** (a fold increase >1.65 is indicated by five stars (*****)) | ≤ 0.1
15 | 260 to 262 °C | Cc1cn2cc(-c3cc4ccc(N5CCN(C(C)C)CC5)cc4c(=O)o3)nc2c(C)n1 [Cpd 74, 3-(6,8-dimethylimidazo[1,2-a]pyrazin-2-yl)-7-[4-(propan-2-yl)piperazin-1-yl]-1H-isochromen-1-one] | **** (an EC1.5×≦0.3 nM is indicated by four stars (****)) | ***** (a fold increase >1.65 is indicated by five stars (*****)) | ≤ 0.1
16 | 248 to 250 °C | Cc1cn2cc(-c3cc4ccc(N5CCN(CCO)CC5)cc4c(=O)o3)nc2c(C)n1 [Cpd 75, 3-(6,8-dimethylimidazo[1,2-a]pyrazin-2-yl)-7-[4-(2-hydroxyethyl)piperazin-1-yl]-1H-isochromen-1-one] | *** (an EC1.5× between >0.3 nM and ≦1 nM is indicated by three stars (***)) | ***** (a fold increase >1.65 is indicated by five stars (*****)) | ≤ 0.1
17 | 219 to 221 °C | Cc1cn2cc(-c3cc4ccc(N5CCN(C)CC5)cc4c(=O)o3)cc2c(C)n1 [Cpd 76, 3-(1,3-dimethylpyrrolo[1,2-a]pyrazin-7-yl)-7-(4-methylpiperazin-1-yl)-1H-isochromen-1-one] | ** (an EC1.5× between >1 μM, and ≦3 nM is indicated by two stars (**)) | *** (a fold increase between >1.35 and ≦1.5 is indicated by three stars (***)) | ≤ 0.1
18 | 202 to 204 °C | CCN1CCN(c2ccc3cc(-c4cc5c(C)nc(C)cn5c4)oc(=O)c3c2)CC1 [Cpd 77, 3-(1,3-dimethylpyrrolo[1,2-a]pyrazin-7-yl)-7-(4-ethylpiperazin-1-yl)-1H-isochromen-1-one] | *** (an EC1.5× between >0.3 nM and ≦1 nM is indicated by three stars (***)) | *** (a fold increase between >1.35 and ≦1.5 is indicated by three stars (***)) | ≤ 0.1
19 | 213 to 215 °C | Cc1cn2cc(-c3cc4ccc(N5CCN(C(C)C)CC5)cc4c(=O)o3)cc2c(C)n1 [Cpd 78, 3-(1,3-dimethylpyrrolo[1,2-a]pyrazin-7-yl)-7-[4-(propan-2-yl)piperazin-1-yl]-1H-isochromen-1-one] | – | *** (a fold increase between >1.35 and ≦1.5 is indicated by three stars (***)) | ≤ 0.1
